Measured values reported in patent US20130165368A1, “ANTIMICROBIAL COMPOUNDS” (priority 2010, published 2013).
In brackets after ≈: the same amount, converted by molar mass. Where two headings read alike, the source gives them in different places. Blank lines part the entries; values can stand above or below the compound they belong to.

Assays:
Type in all cases: cell-based
[1] = system: Staphylococcus epidermidis; assay: MIC agar dilution, micro-organism 14 (11047); settings: Staphylococcus epidermidis 11047
Protocol: (§1) Throughout the period of testing the microbial strains were subcultured and incubated for 18-20 hours at 37° C. on a weekly basis. Horse blood agar plates were used to sustain the micro-organisms both prior to and throughout testing. The alkoxylated alkanols listed in Table II below were obtained (these are obtainable from Sigma-Aldrich Company Ltd, Dorset, England), each having a GC purity of at least 97%.
(§2) Molar equivalent concentrations were used to allow comparison between compounds of differing molecular mass. Due to weighing difficulties, any compound in solid form was melted in a water bath prior to dilution. To make ten-times strength concentrations, which takes into account agar dilution, 0.0352 mmol of each compound was weighed into plastic universal bottles and 4 mL of sterile distilled water (SDW) was added. To produce a homogenous emulsion the universals were vortexed; once achieved the emulsions were serial diluted by adding 2 mL to 2 mL of SDW.
(§3) Myristyl alcohol and lauryl alcohol were re-weighed and dissolved in 25 μL of the polar solvent 1-methyl-2-pyrrolidone (M6762; Sigma-Aldrich) in sterile glass universals due to an inability to achieve an even suspension. To maintain an even emulsion in the presence of SDW 37.5 μL of the non-ionic detergent Tween 20 (P1379, Sigma-Aldrich) was also added. 3.9375 mL of SDW was added to these, to create a 4 mL volume; they were vortexed and diluted as before.
(§4) For every 100 mL of Isosensitest agar (IST) (CM0471; Oxoid, Basingstoke, England), 3.1 g of the IST powder was added to 100 mL SDW (as per manufacturer's instructions) and sterilised for 15 minutes at 121° C. Once sterilised, the molten agar was cooled to 50° C. in a water-bath. Subsequently 4.8 g of CCEY powder (BC2160; Bioconnections, Wetherby, England), also known as Brazier's medium, was added to 100 mL SDW for every 100 mL of agar needed. This was then sterilised for 15 minutes at 121° C. Once sterilised the molten agar was cooled to 50° C. in a water-bath and 4 mL of egg-yolk emulsion (S2073; TCS Biosciences Ltd, Buckingham, United Kingdom) and 1 mL of lysed defibrinated horse blood (HB035; TCS Biosciences Ltd, Buckingham, United Kingdom) were also added for every 100 mL needed. Horse blood lysis is achieved by dilution to half concentration with SDW; when fully lysed the mixture will turn dark red in colour.
(§5) 18 mL agar was added to each universal and then poured into sterile Petri dishes. This step creates a 1/10 dilution resulting in agar plates of the required strength. Control plates for each set of strains were created by adding 18 mL of agar to 2 mL of SDW.
(§6) Suspensions of each bacterial species were prepared with a density equal to that of a 0.5 McFarland standard using a densitometer. All suspensions were made using sterile distilled water and fresh 18-20 hour cultures. As a 0.5 McFarland standard contains 1.5×10^8 CFU/mL and the multipoint inoculators applies 1 μL spots of liquid, each bacterial suspension was diluted 1/15 (20 μL suspension to 280 μL sterile distilled water).
(§7) Bacterial suspensions were prepared from fresh 18-24 hour cultures as previously described. 1 μL of each strain was inoculated onto all 100 agar plates containing a different chemical concentration and the 2 control plates. This was done using a multipoint inoculator which inoculates 20 strains per plate. All plates were incubated for 22 hours at 37° C. in aerobic conditions.
(§8) Each plate was examined for bacterial growth after 22 and 48 hours, with each being incubated in between examinations. A positive result was recorded as growth of ≧10 colonies. A negative result was recorded as growth of <10 colonies as this is equivalent to 99.9% inhibition. The lowest concentration of chemical that inhibited growth was recorded as the MIC. The results are recorded in Table IV below, where the numbers are quoted in mmol/L. […]

Steptococcus pyogenes = assay: MIC agar dilution, micro-organism 11 (8306); settings: Steptococcus pyogenes 8306
Protocol: as §1, §2, §3, §4, §5, §6, §7, §8

Candida glabrata = assay: MIC agar dilution, micro-organism 20 (3943); settings: Candida glabrata 3943
Protocol: as §1, §2, §3, §4, §5, §6, §7, §8

Enterococcus faecium = assay: MIC agar dilution, micro-organism 16 (7171); settings: Enterococcus faecium 7171
Protocol: as §1, §2, §3, §4, §5, §6, §7, §8

Candida albicans = assay: MIC agar dilution, micro-organism 19 (90028); settings: Candida albicans 90028
Protocol: as §1, §2, §3, §4, §5, §6, §7, §8

Providencia rettgeri = assay: MIC agar dilution, micro-organism 3 (7475); settings: Providencia rettgeri 7475
Protocol: as §1, §2, §3, §4, §5, §6, §7, §8

[2] = system: Staphylococcus aureus (MRSA); assay: MIC agar dilution, micro-organism 12 (11939); settings: Staphylococcus aureus (MRSA) 11939
Protocol: as §1, §2, §3, §4, §5, §6, §7, §8

Enterococcus faecalis = assay: MIC agar dilution, micro-organism 17 (775); settings: Enterococcus faecalis 775
Protocol: as §1, §2, §3, §4, §5, §6, §7, §8

Bacillus subtilis = assay: MIC agar dilution, micro-organism 18 (9372); settings: Bacillus subtilis 9372
Protocol: as §1, §2, §3, §4, §5, §6, §7, §8

Listeria monocytogenes = assay: MIC agar dilution, micro-organism 15 (11994); settings: Listeria monocytogenes 11994
Protocol: as §1, §2, §3, §4, §5, §6, §7, §8

Staphylococcus aureus = assay: MIC agar dilution, micro-organism 13 (6571); settings: Staphylococcus aureus 6571
Protocol: as §1, §2, §3, §4, §5, §6, §7, §8

Escherichia coli = assay: MIC agar dilution, micro-organism 1 (10418); settings: Escherichia coli 10418
Protocol: as §1, §2, §3, §4, §5, §6, §7, §8

- MIC ([1]; 22 hrs): >880 µM
- MIC ([1]; 48 hrs): >880 µM
- MIC (Steptococcus pyogenes; 22 hrs): 880 µM (≈ 291 µg/mL)
- MIC (Steptococcus pyogenes; 48 hrs): >880 µM
- MIC (Candida glabrata; 22 hrs): 880 µM (≈ 291 µg/mL)
- MIC (Candida glabrata; 48 hrs): >880 µM
- MIC (Enterococcus faecium; 22 hrs): >880 µM
- MIC (Enterococcus faecium; 48 hrs): >880 µM
- MIC (Candida albicans; 22 hrs): >880 µM
- MIC (Candida albicans; 48 hrs): >880 µM
- MIC (Providencia rettgeri; 22 hrs): >880 µM
- MIC (Providencia rettgeri; 48 hrs): >880 µM
- MIC ([2]; 22 hrs): >880 µM
- MIC ([2]; 48 hrs): >880 µM
- MIC (Enterococcus faecalis; 22 hrs): >880 µM
- MIC (Enterococcus faecalis; 48 hrs): >880 µM
- MIC (Bacillus subtilis; 22 hrs): >880 µM
- MIC (Bacillus subtilis; 48 hrs): >880 µM
- MIC (Listeria monocytogenes; 22 hrs): >880 µM
- MIC (Listeria monocytogenes; 48 hrs): >880 µM
- MIC (Staphylococcus aureus; 22 hrs): >880 µM
- MIC (Staphylococcus aureus; 48 hrs): >880 µM
- MIC (Escherichia coli; 22 hrs): >880 µM
- MIC (Escherichia coli; 48 hrs): >880 µM
Structure (SMILES): CCCCCCCCCCCCCCCCOCCOCCO [C2]

- MIC ([1]; 22 hrs, read-out: MIC): > 880 µM
- MIC ([1]; 48 hrs, read-out: MIC): > 880 µM
- MIC (Steptococcus pyogenes; 22 h, 22 hrs, read-out: MIC): 440 µM (≈ 82 µg/mL)
- MIC (Steptococcus pyogenes; 48 h, 48 hrs, read-out: MIC): ≥ 880 µM
- MIC (Candida glabrata; Nakaseomyces glabratus, 22 h, 22 hrs, read-out: MIC): 440 µM (≈ 82 µg/mL)
- MIC (Candida glabrata; Nakaseomyces glabratus, 48 h, 48 hrs, read-out: MIC): ≥ 880 µM
- MIC (Enterococcus faecium; 22 hrs, read-out: MIC): > 880 µM
- MIC (Enterococcus faecium; 48 hrs, read-out: MIC): > 880 µM
- MIC (Candida albicans; 22 hrs, read-out: MIC): > 880 µM
- MIC (Candida albicans; 48 hrs, read-out: MIC): > 880 µM
- MIC (Providencia rettgeri; 22 hrs, read-out: MIC): > 880 µM
- MIC (Providencia rettgeri; 48 hrs, read-out: MIC): > 880 µM
- MIC ([2]; Staphylococcus aureus, MRSA, 22 h, 22 hrs, read-out: MIC): 440 µM (≈ 82 µg/mL)
- MIC ([2]; Staphylococcus aureus, MRSA, 48 h, 48 hrs, read-out: MIC): ≥ 880 µM
- MIC (Enterococcus faecalis; 22 hrs, read-out: MIC): > 880 µM
- MIC (Enterococcus faecalis; 48 hrs, read-out: MIC): > 880 µM
- MIC (Bacillus subtilis; 22 hrs, read-out: MIC): > 880 µM
- MIC (Bacillus subtilis; 48 hrs, read-out: MIC): > 880 µM
- MIC (Listeria monocytogenes; 22 hrs, read-out: MIC): > 880 µM
- MIC (Listeria monocytogenes; 48 hrs, read-out: MIC): > 880 µM
- MIC (Staphylococcus aureus; Staphylococcus aureus, 22 h, 22 hrs, read-out: MIC): 440 µM (≈ 82 µg/mL)
- MIC (Staphylococcus aureus; Staphylococcus aureus, 48 h, 48 hrs, read-out: MIC): ≥ 880 µM
- MIC (Escherichia coli; 22 hrs, read-out: MIC): > 880 µM
- MIC (Escherichia coli; 48 hrs, read-out: MIC): > 880 µM
Structure (SMILES): CCCCCCCCCCCCO [L0, 1-Dodecanol, reference compound]
